# Assay results taken from patent US5874235A, “Screening assays for cancer chemopreventative agents” (The Johns Hopkins University, priority 1997, dated 1999).
# Numbered stars: 1 amine (or outer) side, 2 acyl side, 3 side chain; on linkers, the order of the positions; unused ones are H or OH. Bridge positions count the residues as written; N and C are the ends. Square brackets hold non-standard residues; d marks the D form. Peptide text beside a SMILES is read from it. I, II: the chains in the order shown. Actinocin(9to1) = Cc1c2oc3c(C)ccc(C(=O)[*:1])c3nc-2c(C(=O)[*:2])c(N)c1=O; NMeV = CN[C@H](C(=O)O)C(C)C; Sar = CNCC(=O)O
# Legend:
# Format in all cases: cell-based, human
# [1] = tested on: HCT116 cells; details: for inhibition of SUS-induced apoptosis: co-treatment with SUS 125 μM (CHX 10 μM; PGE2 10 μM)
# Experimental: FIGS. 1A, 1B and 1C NSAID induce apoptosis in human colorectal cancer cells. In FIG. […] Cells were collected at the indicated times, fixed and stained with Hoechst 33258 (23). The cells were counted and those with fragmented nuclei were scored as apoptotic. In FIG. 1B, HCT116 and SW480 cells were treated with SUS or INDO for 60 hours, harvested and stained as described above. Cells treated with SUS or INDO show the hallmarks of apoptosis.
# (§1) This death appeared to be apoptotic, as it was accompanied by nuclear condensation and fragmentation (FIG. 1B) and exposure of phosphatidylserine groups on the cell surface, two hallmarks of apoptosis (11, 12).
# [2] = tested on: SW480 cells; details: for inhibition of SUS-induced apoptosis: co-treatment with SUS 200 μM (CHX 10 μM; PGE2 10 μM); for effect on apoptosis: 200 μM fatty acid, 48 hours
# [3] = tested on: SW480 cells; assay: Ceramide levels, E. coli diacylglycerol (DAG) kinase assay; details: for effect on ceramide levels: 48 hours
# Experimental: (§2) Cells were harvested and ceramide was quantified. The first lane of each panel corresponds to a ceramide standard (ceramide type III, Sigma). […] HCT116 and SW480 cells were treated with SUS or INDO as indicated. Ceramide levels were determined as described above. […] Control cells were treated with DMSO vehicle only. Cells were harvested at the indicated times following treatment and ceramide levels were determined as described above. The data are plotted as the mean of at least two experiments with the error bars corresponding to the standard deviation.
# (§3) Ceramide levels were measured using the Escherichia coli diacylglycerol (DAG) kinase assay as previously described (30) with the following modifications. After the initial lipid extraction, phases were broken by adding 2 ml chloroform and 2 ml 1M NaCl and lipids were washed with 1M NaCl prior to drying under nitrogen (32, 33). After solubilization, samples were sonicated for 15 seconds. The DAG reaction was performed for 30 minutes at 25° C. in a 100 μl reaction volume with 3.5 μg DAG kinase (Calbiochem) and […] γ^32 P-ATP (Dupont NEN, 6000 Ci/mmol). After extraction of the labeled lipids, the lower chloroform phase was washed with 1% HCl prior to drying under nitrogen. The solvent mixture for thin layer chromatography was chloroform:acetone:methanol:acetic acid:water (10:4:3:2:1). Samples were quantitated using a Phosphorimager (Molecular Dynamics).
# [4] = tested on: SW480 cells; details: indomethacin treatment
# Experimental: FIGS. 1A, 1B and 1C NSAID induce apoptosis in human colorectal cancer cells. In FIG. 1A, HCT116 and SW480 cells were treated with indomethacin (INDO) (300 μM) or SUS (125 μM for HCT116 and 200 μM for SW480 cells). Cells were collected at the indicated times, fixed and stained with Hoechst 33258 (23). The cells were counted and those with fragmented nuclei were scored as apoptotic. In FIG. 1B, HCT116 and SW480 cells were treated with SUS or INDO for 60 hours, harvested and stained as described above. Cells treated with SUS or INDO show the hallmarks of apoptosis.
# as §1
# [5] = tested on: HCT116 cells; assay: Ceramide levels, E. coli diacylglycerol (DAG) kinase assay; details: indomethacin treatment
# Experimental: as §2, §3
# [6] = tested on: HCT116 cells; assay: Arachidonic acid levels, release of 3H-AA into the media
# Experimental: (§4) FIGS. 4A, 4B, 4C, 4D, 4E and 4F. The role of arachidonic acid in NSAID-mediated apoptosis. […] HCT116 and SW480 cells were treated with the indicated concentrations of SUS or INDO. Arachidonic acid (AA) levels were determined by measuring release of ^3 H-AA into the media as previously described (18). Data are indicated as the mean of three replicates with the error bars corresponding to the standard deviation. In addition, the nature of the released radiolabeled material was evaluated by thin layer chromatography as previously described (28). […] HCT116 and SW480 cells were incubated with ^3 H-choline chloride (0.5 mCi ml^-1, 80 Ci mmol^-1, New England Nuclear) for 48 hours. After labeling, cells were washed with HBSS (Gibco) and treated with SUS or INDO for the indicated times. Sphingomyelin measurements were performed using the bacterial sphingomyelinase method as previously described (18). Sphingomyelin levels at each time point are plotted as a percentage of that in untreated control cells. For each point, the mean of at least two independent experiments is presented with the error bars corresponding to the standard deviations. […] SW480 cells were treated with 200 μM arachidonic acid (AA), SUS (SUS) or behenic acid as a control fatty acid (FA) as indicated. […] SW480 cells were treated with suboptimal doses (100 μM) of arachidonic acid (AA), SUS (SUS), or both (AA+SUS) as indicated. After 48 hours of treatment, apoptosis and ceramide increases were assessed as described for FIGS. 1 and 3, respectively. Ceramide increases (left axis) were expressed as fold increases relative to untreated cells. Apoptosis (right axis) was expressed as percent apoptotic cells minus percent apoptotic cells in untreated cells (5.6%+/-2.4). Data are indicated as the mean of duplicates with the error bars corresponding to the standard deviation.
# (§5) Arachidonic acid is known to stimulate neutral sphingomyelinase (18), which catalyzes the conversion of sphingomyelin to ceramide. We therefore considered the possibility that inhibition of COX activity might lead to increases in arachidonic acid, the substrate for COX. To test this hypothesis, we first determined whether SUS stimulated arachidonic acid accumulation. In both SW480 and HCT 116 cells, apoptosis-inducing doses of SUS increased arachidonic acid by 2 to 3 fold at 24 hours and by approximately 5 fold at 48 hours (FIGS. 4A and 4B). The arachidonic acid increase following SUS treatment was as great as that following treatment with mellitin, a known activator of phospholipase A2. Arachidonic acid levels in HCT116 cells increased 3.5 fold one hour after treatment with 1 μM mellitin. Likewise, arachidonic acid levels increased 2.9 fold in SW480 cells one hour after mellitin treatment. Arachidonic acid (AA) levels were determined by measuring release of ^3 H-AA into the media as previously described (18). The nature of released radiolabeled material was evaluated by thin layer chromatography analysis as previously described (28).
# [7] = tested on: SW480 cells; assay: cells; details: for increase in arachidonic acid: sw480 cells
# Experimental: as §4, §5
# [8] = tested on: HCT116 cells; assay: Sphingomyelin levels, bacterial sphingomyelinase method; details: indomethacin treatment
# Experimental: as §4
# (§6) To test whether the increased ceramide was associated with evidence of augmented sphingomyelinase activity, we measured total sphingomyelin levels after SUS treatment. […] We also measured neutral sphingomyelinase activity in lysates from the treated cells and no differences were found. Neutral sphingomyelinase activity was assayed as described (18). After cell lysis, protein concentrations were determined using the Bradford method (Bio-Rad) and […] cellular protein was used in each assay. Neutral sphingomyelinase activity was determined by measuring the rate of hydrolysis of ^14 C-labelled sphingomyelin (Amersham). SW480 and HCT116 cell lines were treated with SUS (50, 200, and 600 μM) for 6 to 24 hours.
# [9] = tested on: SW480 cells; assay: as above; details: indomethacin treatment
# Experimental: as §4, §6
compound,measurement,setting,value
"Cc1c2oc3c(C)ccc(C(=O)N[C@@H]4C(=O)N[C@H](C(C)C)C(=O)N5CCC[C@H]5C(=O)N(C)CC(=O)N(C)[C@@H](C(C)C)C(=O)O[C@@H]4C)c3nc-2c(C(=O)N[C@@H]2C(=O)N[C@H](C(C)C)C(=O)N3CCC[C@H]3C(=O)N(C)CC(=O)N(C)[C@@H](C(C)C)C(=O)O[C@@H]2C)c(N)c1=O [actinomycin D] (I: T[dV]P[Sar][NMeV] / II: T[dV]P[Sar][NMeV]; ester I:1-I:C, II:1-II:C; linker I:N-II:N via Actinocin(9to1))",inhibition of SUS-induced apoptosis,[1],completely inhibit apoptosis
same,inhibition of SUS-induced apoptosis,[2],completely inhibit apoptosis
CCCCC/C=C\C/C=C\C/C=C\C/C=C\CCCC(=O)O [arachidonic acid],effect on ceramide levels,[3]; 200 μM fatty acid,a potent inducer of ceramide and apoptosis
same,effect on ceramide levels,"[3]; suboptimal doses, 100 μM each, separately or together",little effect on ceramide levels
same,effect on apoptosis,[2],a potent inducer of ceramide and apoptosis
CCCCCCCCCCCCCCCCCCCCCC(=O)O [behenic acid],effect on ceramide levels,[3]; 200 μM fatty acid,virtually no effect on ceramide levels and apoptosis
same,effect on apoptosis,[2],virtually no effect on ceramide levels and apoptosis
C[C@@H]1C[C@@H]([C@H](O)CC2CC(=O)NC(=O)C2)C(=O)[C@@H](C)C1 [cycloheximide],inhibition of SUS-induced apoptosis,[1],completely inhibit apoptosis
same,inhibition of SUS-induced apoptosis,[2],completely inhibit apoptosis
same,inhibition of SW480 cell death,[2]; higher concentrations of SUS,could not inhibit
COc1ccc2c(c1)c(CC(=O)O)c(C)n2C(=O)c1ccc(Cl)cc1 [indomethacin],induction of apoptosis compared with SUS,[1]; indomethacin treatment,to similar degrees as SUS
same,induction of apoptosis compared with SUS,[4],to similar degrees as SUS
same,cells induced to undergo apoptosis,[4]; cycloheximide sensitive,94%
same,increase of ceramide concentration compared with SUS,[5],to similar degrees as SUS
same,increase in ceramide levels,[3]; indomethacin treatment,6 fold
same,increase of ceramide concentration compared with SUS,[3]; indomethacin treatment,to similar degrees as SUS
same,increase of arachidonic acid concentration compared with SUS,[6]; indomethacin treatment,to similar degrees as SUS
same,increase of arachidonic acid concentration compared with SUS,[7]; indomethacin treatment,to similar degrees as SUS
same,increase in arachidonic acid,[7],3-4 fold
same,activation of sphingomyelin hydrolysis compared with SUS,[8],to similar degrees as SUS
same,activation of sphingomyelin hydrolysis compared with SUS,[9],to similar degrees as SUS
CCCCC[C@H](O)/C=C/[C@H]1[C@H](O)CC(=O)[C@@H]1C/C=C\CCCC(=O)O [prostaglandin E2],inhibition of SUS-induced apoptosis,[1],No inhibition of apoptosis was observed
same,inhibition of SUS-induced apoptosis,[2],No inhibition of apoptosis was observed
ceramide,induction of apoptosis,"[1]; human, hct116 cells, 16 h, 100 µM",> 90%
same,increase in arachidonic acid,"[6]; hct116 cells, 16 h, 100 µM",1.5 fold
same,increase in arachidonic acid,"[7]; 16 h, 100 µM",1.9 fold
same,induction of apoptosis,"[2]; human, sw480 cells, 16 h, 100 µM",> 90%
mellitin,increase in arachidonic acid levels,[6]; one hour after 1 μM mellitin,3.5 fold
same,increase in arachidonic acid levels,"[7]; one hour after mellitin treatment, 60 min",2.9 fold
